Experimental findings from ChEMBL document CHEMBL5356981, “Discovery of potential scaffolds for glutaminyl cyclase inhibitors: Virtual screening, synthesis, and evaluation” (Bioorg Med Chem, 2024) are described below.

For the assay, the target named is Glutaminyl-peptide cyclotransferase (Homo sapiens, UniProt Q16769). As to the kind of experiment: Inhibition of N-terminal his6-tagged human recombinant glutaminyl cyclase expressed in Escherichia coli using H-Gln-AMC as substrate incubated for 60 mins in presence of pyroglutamyl peptidase.
Chain of Glutaminyl-peptide cyclotransferase (Q16769 whole entry): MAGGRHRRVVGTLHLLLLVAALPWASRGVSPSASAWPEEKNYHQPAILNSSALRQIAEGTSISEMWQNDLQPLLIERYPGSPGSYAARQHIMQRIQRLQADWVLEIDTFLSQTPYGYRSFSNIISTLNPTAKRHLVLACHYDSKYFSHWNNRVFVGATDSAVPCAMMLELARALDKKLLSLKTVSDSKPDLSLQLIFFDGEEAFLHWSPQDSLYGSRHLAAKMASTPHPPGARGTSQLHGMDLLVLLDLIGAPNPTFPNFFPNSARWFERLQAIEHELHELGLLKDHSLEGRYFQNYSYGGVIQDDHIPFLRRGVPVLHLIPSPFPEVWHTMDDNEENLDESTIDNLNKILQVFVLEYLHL

In the case of `COc1ccc(S(=O)(=O)Nc2ccc(-c3cn[nH]c3)cc2)cc1`, the IC50 – broadly, the concentration that gives 50% inhibition – is over 30 µM.
